The source of these data is US9687539B2, “CD4+ T survivin epitopes and uses thereof” (Commissariat a I'Energie Atomique, priority 2005, dated 2017).

For orientation: IC50 means the concentration that inhibits the measured activity by half.

No end group written: not given here.

The target in one assay is HLA-DR7 (DRB1*0701) (Homo sapiens, UniProt P01903+P01911, A100R/A102G/A103Q/D57E/D86V/E43K/F76Y/K127E/L162R/M171V/P40G/Q125H/Q99D/R33Q/R42Y/R54Q/S133A/S66F/T210M/V115G/Y107V/Y59L/Y89S). Nature of the assay: biochemical. The note with it: competition with biotinylated tracer; 3 independent experiments; read-out: Binding activity DR7 (IC50).
Assay [1] has as its system survivin-specific CD4+ T lymphocyte lines. Nature of the assay: Response of CD4+ T lymphocyte lines to decreasing doses of peptide, IFN-γ ELISPOT. The note with it: 10^−5 to 10^−10 M peptide, autologous PBMCs; donors 174 and 188. Format: cell-based, human. The method, then: FIG. 4 illustrates the response of the survivin-specific CD4+ T lymphocyte lines to decreasing doses of peptide. Survivin-specific CD4+ T lymphocyte lines were obtained from PBMCs from two normal donors (174 and 188). The lines were incubated with decreasing concentrations (10^−5 to 10^−10 M) of peptide 17-31 (▴), 90-104 (▪), 93-107 (▪), 96-110 (Δ) or 128-142 (□), in the presence of 10^5 autologous PBMCs. The CD4+ T lymphocyte response was measured by IFN-γ ELISPOT.
The anti-IFN-γ human monoclonal antibody 1-D1K (MABTECH), diluted to 10 μg/ml in PBS buffer, was adsorbed onto nitrocellulose plates (Multiscreen HA; Millipore) for 1 hour at 37° C. The plates were subsequently washed with PBS and then saturated with complete IMDM medium (100 μl/well), for 1 h at 37° C. […] The immunoenzymatic revelation was stopped after approximately 10 minutes by thorough rinsing of the plates in water, and the colored spots were counted using an automatic reader (ELISPOT reader system, AID). […]
Finally, the sensitivity of the peptide recognition by the T lymphocytes was evaluated, in the presence of decreasing doses of peptide (FIG. 4). […]

Another assay has as its target HLA-DRB5 (DRB5*0101) (Homo sapiens, UniProt P01903+Q30154). Put plainly: Competitive HLA II/peptide binding assay, HLA-DRB5. The note with it: competition with biotinylated tracer; 3 independent experiments.
In the next assay the target is T1, HLA-DP401 (DP*0401) (Homo sapiens, UniProt P04440+P20036).
T1 sequence (P04440 30-258): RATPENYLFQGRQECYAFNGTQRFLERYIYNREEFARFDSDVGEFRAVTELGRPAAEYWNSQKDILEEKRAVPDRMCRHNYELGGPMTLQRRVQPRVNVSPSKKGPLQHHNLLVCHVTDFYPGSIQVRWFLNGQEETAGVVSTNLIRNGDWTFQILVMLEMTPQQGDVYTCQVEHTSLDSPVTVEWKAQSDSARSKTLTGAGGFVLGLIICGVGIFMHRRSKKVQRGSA
T1 sequence (P20036 29-260): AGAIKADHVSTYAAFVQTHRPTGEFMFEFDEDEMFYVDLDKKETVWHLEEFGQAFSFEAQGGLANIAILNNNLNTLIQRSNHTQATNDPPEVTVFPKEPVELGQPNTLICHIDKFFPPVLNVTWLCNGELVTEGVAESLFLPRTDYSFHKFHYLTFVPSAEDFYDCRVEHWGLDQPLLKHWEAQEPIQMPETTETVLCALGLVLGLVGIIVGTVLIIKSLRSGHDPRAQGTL
Nature of the assay: biochemical. The note with it: competition with biotinylated tracer; 3 independent experiments; read-out: Binding activity DP401 (IC50).

The next assay deals with HLA-DR15 (DRB1*1501) (Homo sapiens, UniProt P01903+P01911). Put plainly: Competitive HLA II/peptide binding assay, HLA-DR15. The note with it: competition with biotinylated tracer; 3 independent experiments.

As to “HRISTFKNWPFLEGC [peptide 17-31, H R I S T F K N W P F L E G C]”, the figures for the IC50 on HLA-DR7 (DRB1*0701) and on HLA-DRB5 (DRB5*0101) were 0.018 µM and 0.302 µM, respectively. In assay [1], the “Peptide concentration at which CD4+ T lymphocyte lines are stimulated” value is on record as 10^−10 M.
With “LTLGEFLKLDRERAK [peptide 96-110, L T L G E F L K L D R E R A K]”, the IC50 at HLA-DP401 (DP*0401) was determined as 2.91 µM.
As for “KKQFEELTLGEFLKL [peptide 90-104, K K Q F E E L T L G E F L K L]”, the IC50 on HLA-DR15 (DRB1*1501) was 7.5 µM.
